Source: patent US20190015423A1, “REGULATION OF GENE EXPRESSION BY MODULATING PRIMARY CILIA LENGTH” (THE TRUSTEES OF COLUMBIA UNIVERSITY IN THE CITY OF NEW YORK, priority 2016, published 2019)
Entries after “also recorded” stand apart in the source; their conditions may differ. Like-named read-outs stand apart in the source and are kept apart here.

Assays:
[1] = system: C57Bl/6 mice; experiment: Load-induced bone formation: compressive ulnar loading and dynamic histomorphometry; type: in vivo
Description: All data are shown in reference to the non-loaded contralateral limb as control. […] On day 4-6 the mice were subjected to daily axial compressive ulnar loading. Mice were placed under isoflurane anesthesia and forelimbs were placed between two loading cups controlled by an electromagnetic loading system with feedback control (Bose, ELF 3220). An initial 0.1 N preload was applied, followed by 3 N of cyclic compression applied with a 2 Hz sine wave for 120 cycles, generating a strain gage verified average peak deformation of 1895 μstrain. On day 8, mice were subcutaneously injected with calcein (10 mg/kg) and alizarin red (70 mg/kg) on day 12. Mice were euthanized on day 18 and prepared for dynamic histomorphometric analysis.
Compressive ulnar loading was applied on days 5-7 to mechanically stimulate bone (3N at 2 Hz for 120 cycles) [9].
On the final three days of drug or control injection, animals were also subjected to compressive ulnar load at a peak load of 3 N using a 2 Hz sine wave for 120 cycles, as previously described (Temiyasathit, S. et al. PLoS One 7, (2012); Lee, K. L. et al. FASEB J. 28, 1157-1165 (2014)). Contralateral limbs served as a non-loaded control. 2 days following load, mice were treated with 10 mg/kg calcein (Sigma), and 4 days later 70 mg/kg alizarin (Sigma), with mice being sacrificed 6 days later.
Dynamic histomorphometry was performed as previously described, measuring the amount and separation of calcein and alizarin labels to quantify mineralizing surface (rMS/BS), mineral apposition rate (rMAR), and bone formation rate (rBFR/BS) relative to non-loaded controls (Temiyasathit, S. et al. PLoS One 7, (2012); Lee, K. L. et al. FASEB J. 28, 1157-1165 (2014)). Left and right ulnae were dissected and preserved in ethanol. Samples were then infiltrated with methyl methacrylate, and embedded in methyl methacrylate and benzoyl peroxide. Transverse sections of the ulnar midshaft were imaged on a laser scanning confocal microscope (Olympus Fluoview FV1000). Measurements of outer bone perimeter (OP), single label perimeter (SL), double label perimeter (DL), and double label area (DA) were made in ImageJ. The mineralizing surface relative to outer bone surface (MS/BS), mineral apposition rate (MAR), and bone formation rate (BFS/BS) were calculated as:
Relative measurements—rMS/BS, rMAR, rBFR/BS—were determined by subtracting non-loaded from loaded ulnae to display differences due to mechanical load.

[2] = system: MLO-Y4 osteocytes; experiment: High-throughput drug screening of primary cilia length and incidence; type: cell-based
How it was run: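 MLO-Y4 osteocytes on collagen I, treated 16 h with 10 μM compound in triplicate, fixed, stained for acetylated α-tubulin and Hoechst, imaged at 40× (4 fields/well); cilia length and incidence normalized to plate DMSO controls. Hits ranked by SD from population mean, requiring ≥40% viability by nuclei count.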

[3] = system: MC3T3 osteoblasts; experiment: Flow-induced paracrine signaling: conditioned media of treated osteocytes on osteoblasts (OPN mRNA); type: cell-based; details: osteocytes treated with tubastatin 5 μM 3-4 hours; 12 hrs flow; osteoblasts cultured 24 hours
[4] = system: MLO-Y4 osteocytes; experiment: Oscillatory fluid flow-induced mRNA expression (COX-2, OPN, AC6), flow vs no flow; type: cell-based
[5] = system: MLO-Y4 osteocytes; experiment: Primary cilia length and incidence by immunocytochemistry (acetylated α-tubulin); type: cell-based
Experimental: MLO-Y4 osteocytes were cultured on collagen-coated dishes in MEMα (Life Tech) supplemented with 5% fetal bovine serum, 5% calf serum, and 1% penicillin/streptomycin at 37° C. and 5% CO2. […] These agents, or their vehicle control, were applied to cells for 16 h prior to experimentation. MTT, (methylthiazolyldiphenyl-tetrazolium bromide) assay (Sigma) was performed according to manufacturer's protocol to assess cell viability during drug treatments. Phase contrast microscopy with an Olympus CKX41 inverted microscope and 40× objective was used to assess cell morphology.
For primary cilia imaging and analysis, cells cultured on collagen I-coated glass were fixed in 10% formalin and treated with anti-acetylated α-tubulin primary antibody, 1:1, from a C3B9 hybridoma cell line (Sigma). Cilia were visualised with Alexa-Fluor 488 secondary antibody, 1:1000 (Life Technologies) and imaged with a 100× oil objective on an Olympus Fluoview FV1000 confocal microscope. Nuclei were stained with DAPI (Life Technologies). Cilia length was analyzed using Image J software.
Gene silencing was performed by siRNA mediated knockdown and compared to scramble siRNA control (Life Technologies). […]

[6] = 10 μM, 16 hours, triplicate, normalized to vehicle control, standard deviation away from the population average
[7] = AC6 siRNA, mechanically stimulated cells

Row | Compound | Average Incidence SD Away [2, 6] [SD] | Average Length SD Away [2, 6] [SD] | further results
1 | CCCCCCCCCC(=O)O[C@@H]1[C@@H](C)[C@@]2(O)[C@@H](C=C(CO)C[C@@]3(O)C(=O)C(C)=C[C@@H]23)[C@@H]2C(C)(C)[C@]12OC(=O)CCCCCCCCC [4αPDD] |  |  | relative bone formation rate (rBFR/BS) compared to vehicle control ([1]; 4αPDD 250 μg/kg s.c. 6 consecutive days, load day 4-6, n=3, preliminary study): did not promote a significant increase
2 | CN1[C@@H]2CC[C@H]1C[C@@H](OC(=O)c1c[nH]c3ccccc13)C2 [Tropisetron] | 1.694 |  | 
3 | C[C@@H](CN1CCC(n2c(=O)[nH]c3cc(Cl)ccc32)CC1)NC(=O)c1ccc2ccccc2c1 [VU 0155069] |  | 1.618 | 
4 | CCCCC(=O)N(Cc1ccc(-c2ccccc2-c2nnn[nH]2)cc1)[C@H](C(=O)O)C(C)C [Valsartan (Diovan), Valsartan] | 1.648 |  | 
5 | CC[C@]1(O)C[C@@H]2CN(CCc3c([nH]c4ccccc34)[C@@](C(=O)OC)(c3cc4c(cc3OC)N(C)[C@H]3[C@@](O)(C(=O)OC)[C@H](OC(C)=O)[C@]5(CC)C=CCN6CC[C@]43[C@@H]65)C2)C1 [Vinblastine] | 3.124 | 1.771 | 
6 | O=C(CCCCCCC(=O)Nc1ccccc1)NO [Vorinostat] |  | 3.283 | 
7 | CN(C)CCc1c[nH]c2ccc(C[C@H]3COC(=O)N3)cc12 [Zolmitriptan (Zomig), Zolmitriptan] | 1.521 |  | 
8 | COc1cc2c(cc1OC)C1C(=O)c3c(cc4c(c3O)C=CC(C)(C)O4)OC1CO2 (stereo not drawn) [beta-TOXICAROL] |  | 1.664 | 
9 | CN1CCc2c(c3ccccc3n2Cc2ccc(C(=O)NO)cc2)C1 [tubastatin, tubastatin A] |  |  | relative bone formation rate (rBFR) ([1]; tubastatin 5 mg/kg s.c. 6 consecutive days, load day 4-6, n=3, preliminary study): did not elicit a marked change; relative bone formation rate (rBFR) ([1]; tubastatin 5 mg/kg s.c. 6 consecutive days, load day 4-6, n=3, preliminary study, listed as Tubastatin): slightly decreased; decrease in active mineralizing surface (rMS/BS) ([1]; tubastatin 5 mg/kg s.c. 6 consecutive days, data not shown): over 50%; osteoblast osteogenic gene (osteopontin, OPN) expression after conditioned media from flow-stimulated osteocytes [3]: decreased; also recorded: impaired
10 | (S)-(+)-Niguldipine hydrochloride |  |  | Average Length SD Away [2]: 2.267 SD
11 | AC6 siRNA: siRNA 5′-CCTGCCACCTACAACAGCTCAATTA-3′ (SEQ ID NO:2) (listed as DNA, chemistry not given here) |  |  | decrease of AC6 expression [4, 7]: 50%±3%; decrease of flow-induced OPN expression [4, 7]: 30%±3%; cilia incidence ([5]; AC6 siRNA): no effect; also recorded: Neither AC6 siRNA nor fenoldopam alter cilia incidence; decrease in cilia length ([5]; AC6 siRNA): 10%±3%
12 | Gabexate mesylate | 1.87 |  | 
13 | IFT88 siRNA: siRNA 5′-CCAGAAACAGATGAGGACGACCTTT-3′ (SEQ ID NO:1) (listed as DNA, chemistry not given here) |  |  | decrease of flow-induced OPN mRNA expression compared to scramble control ([4]; IFT88 siRNA, flow 1 h): 43%±2%; primary cilia incidence compared to scramble control ([5]; 20 μM IFT88 siRNA, 48 hours): lower incidence; also recorded: decreases; primary cilia length compared to scramble control ([5]; 20 μM IFT88 siRNA, 48 hours): significantly shorter; also recorded: decreased
14 | MONENSIN SODIUM |  | 1.722 | 
15 | Ro 19-4605 |  | 1.584 | 
16 | S(−)-Atenolol | 2.177 | 2.057 | 
